Our source for the GI50 and TGI values is PubChem BioAssay (NCI).

What all share (test): NCI anticancer screen, dose series, 48 h
In assay [1] the test system is HL-60(TB) leukemia.
The test system of assay [2] is HS 578T breast.
The subject of assay [3] is MDA-MB-435.
The subject of assay [4] is MOLT-4 leukemia.
Assay [5] concerns OVCAR-8 ovarian.
Assay [6] has as its system PC-3 prostate.
Assay [7] has as its system SN12C renal.
Assay [8] deals with SNB-75 CNS.
For assay [9], the system named is SR leukemia.
Assay [10] has as its system T-47D breast.

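Results reflect a 48-hour exposure of cells in 96-well plates to compound at five concentrations. The concentration for 50% growth inhibition is given as GI50. The concentration for full growth arrest is given as TGI.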

As for `Nc1nc(Cl)nc2c1ncn2C1OC(CO)C(O)C1F` (stereo not drawn), the GI50 in [1] was 0.308 µM; in assay [2] it was 4.71 µM; in assay [3], 0.0472 µM; in [5], 0.0292 µM; in assay [6], 99.7 µM; in assay [7] it was < 0.0439 µM. The GI50 in assay [8] is 0.731 µM; in assay [9] it was 1.67 µM; in assay [10] it was 10.1 µM. The TGI was > 100 µM in assay [1]; > 80.7 µM in assay [2]; > 100 µM in assay [3]; > 100 µM in [4]; > 100 µM in assay [5]; > 100 µM in [6]. For the same compound, the TGI is > 26.1 µM in [8], 5.26 µM in [9] and > 100 µM in assay [10].

On to `C=C(C(=O)OC)[C@@H]1CC2OC1C(=O)C(C)CCC/C(C)=C/CC[C@@]2(C)O` (stereo partly drawn), for which the GI50 in assay [2] is 36.9 µM; in assay [3], 25.9 µM; in assay [4], 17.2 µM; in assay [5], 28.1 µM; in assay [6], 36.8 µM; in assay [7], 31.3 µM. Besides, the values for the GI50 in [9] and in [10] were 5.1 µM and 59.8 µM, respectively. In addition, the TGI in assay [2] was > 100 µM; in assay [3] it was 79.4 µM; in assay [4] it was 54.5 µM; in assay [5] it was 93.6 µM; in assay [6] it was > 100 µM; in [7] it was 91.5 µM. For the same compound, the values for the TGI in assay [9] and in assay [10] were 25.1 µM and > 100 µM, respectively.

With `O=C1CC(c2cccc(Cl)c2)Oc2ccccc21` (stereo not drawn), the TGI in assay [1] turned out to be 57.1 µM; in assay [2] it was 61.8 µM; in [3], 38.1 µM; in assay [5], 53.8 µM; in assay [6], 30.4 µM; in assay [8] it was 66.6 µM. Also, the TGI in [10] was determined as 91.7 µM.

Consider `CCCCCCCCCCCNC=O`, for which the TGI in assay [1] is 39.7 µM; in assay [2] it was > 100 µM; in assay [3], > 100 µM; in assay [4], 60.6 µM; in assay [5] it was > 100 µM; in assay [6] it was 66.9 µM. The TGI in assay [7], in [8] and in [10] was > 100 µM throughout.

In the case of `CN(C)CCN1C(=O)c2cccc3c(/C=C/CN4C(=O)c5cccc6cccc(c56)C4=O)ccc(c23)C1=O`, the GI50 in [1] was > 100 µM; in assay [2], 13.8 µM; in [3] it was > 100 µM; in assay [4], > 100 µM; in assay [5], 4.21 µM; in [6], > 100 µM. The results for the GI50 in [7], in [9] and in assay [10] were 21.9 µM, 39.2 µM and > 100 µM, respectively. The TGI in assay [1] is > 100 µM; in [2] it was 35.7 µM; in assay [3], > 100 µM; in assay [4], > 100 µM; in assay [5] it was > 100 µM; in assay [6], > 100 µM. Besides, the results for the TGI in assay [7], in assay [9] and in assay [10] were 70.5 µM, > 100 µM and > 100 µM, respectively.

In the case of `O=C1CS/C(=N/S(=O)(=O)c2ccc(N3N=C4c5ccccc5CC4C3c3cccs3)cc2)N1C(=O)c1ccccc1` (stereo not drawn), the GI50 in assay [2] was 25.3 µM; in assay [3] it was 37.4 µM; in assay [4], 22.2 µM; in assay [5], 45.7 µM; in assay [6], 38.1 µM; in [7], 49.6 µM. The GI50 in assay [8] and in assay [10] was > 100 µM throughout. Also, the TGI is > 100 µM in assay [2]; > 100 µM in [3]; 53.4 µM in assay [4]; > 100 µM in assay [5]; > 100 µM in assay [6]; > 100 µM in assay [7]. In addition, the TGI in [8] and in assay [10] was > 100 µM each time.

Regarding `N#C/C(=C/N1CCN(C(=O)c2ccco2)C1=S)C(=O)Nc1ccc(Cl)cc1`, the GI50 in assay [1] was 10.5 µM; in assay [3], 15.2 µM; in assay [4], 17.8 µM; in [5], 20.6 µM; in [6] it was 18.9 µM; in [7] it was 11.8 µM. Also, the values for the GI50 in assay [8], in assay [9] and in assay [10] were > 50 µM, 1.56 µM and > 50 µM, respectively. Moreover, the TGI was 28.7 µM in [1]; > 50 µM in assay [3]; > 50 µM in [4]; > 50 µM in assay [5]; > 50 µM in [6]; 37.2 µM in assay [7]. Besides, the TGI in assay [8] was > 50 µM; in assay [9], 21.3 µM; in [10], > 50 µM.

Take `C1CSC[C@H]2COC[C@@H](CSCCS1)S2`: the TGI in assay [1], in assay [3], in [4], in [5], in assay [6] and in assay [7] was > 100 µM throughout. For the same compound, the TGI in [8], in [9] and in assay [10] was > 100 µM throughout.

As for `OCCCCC#Cc1ccccc1C#Cc1cccnc1`, the GI50 is 26.8 µM in assay [1]; 44.9 µM in [2]; 32.2 µM in assay [3]; 27.9 µM in [4]; 30.7 µM in assay [5]; 36.3 µM in assay [6]. Also, the GI50 in assay [7] was 26.9 µM; in assay [8], 40.3 µM; in [10], 34.7 µM. Also, the TGI is 75.1 µM in assay [1]; > 100 µM in [2]; > 100 µM in assay [3]; > 100 µM in [4]; > 100 µM in assay [5]; > 100 µM in assay [6]. Moreover, the TGI in assay [7] is 82.6 µM; in assay [8], > 100 µM; in assay [10], > 100 µM.

With `C=C(C)[C@@H]1CCc2c(O)c(O)c(=O)cc(C)c2C1`, the TGI was > 100 µM in assay [2]; > 100 µM in assay [3]; > 25.2 µM in [4]; 22.3 µM in [5]; > 100 µM in assay [6]; > 100 µM in [7]. Moreover, the results for the TGI in assay [8], in assay [9] and in [10] were > 83.3 µM, > 20.3 µM and 23.7 µM, respectively.

Take `CC12OC(C(=O)C13CC3)C1C(=O)c3c(O)ccc(O)c3C(=O)C12` (stereo not drawn): the GI50 is 16.3 µM in [2]; 18.4 µM in assay [3]; 2.35 µM in assay [4]; 15.6 µM in assay [5]; 16.5 µM in assay [6]; 20.6 µM in [8]. Moreover, the GI50 in assay [10] is 11.6 µM. The TGI in assay [2] worked out at 46.2 µM; in assay [3] it was 36.5 µM; in assay [4], 10.2 µM; in assay [5] it was 36.1 µM; in assay [6], 37.1 µM; in assay [8] it was 40.8 µM. In assay [10], this compound gave a TGI of 32 µM.

Turning to `C=CC1C(CC2OC(CO)C(O)C(O)C2O)OC=C2C(=O)OCCC21O` (stereo not drawn), the GI50 in [2] was 34.6 µM; in assay [3] it was 13.7 µM; in assay [4], 3.78 µM; in assay [5] it was 16.7 µM; in assay [6] it was 11 µM; in [7], 20.8 µM. Besides, the values for the GI50 in [8], in [9] and in assay [10] were 1.84 µM, 3.32 µM and 32 µM, respectively. For the same compound, the TGI in assay [2] is > 100 µM; in [3] it was 44.5 µM; in assay [4], 30.5 µM; in assay [5], 62.4 µM; in [6], 27.9 µM; in assay [7], 75.6 µM. Moreover, the TGI in assay [8] was 18.6 µM; in [9], 26.5 µM; in assay [10], > 100 µM.

As to `Fc1ccc2c(c1)C1=C(CCC2)C(c2ccc(Cl)cc2)NC(=S)N1` (stereo not drawn), the GI50 in assay [1] is 7.51 µM; in assay [2] it was 50.5 µM; in assay [3], 40.9 µM; in assay [4] it was 24.5 µM; in [5] it was 25.8 µM; in assay [6] it was 17.6 µM. The GI50 in assay [7] is 60.8 µM; in assay [8], 69.9 µM; in assay [10] it was 54.4 µM. For the same compound, the TGI in assay [1], in assay [2], in assay [3], in [4], in assay [5] and in assay [6] was > 100 µM in each case. In addition, the TGI is 89.2 µM in assay [7], > 100 µM in [8] and > 100 µM in assay [10].

As to `CC(C)(C)c1ccc(C2CC(=O)C3=C(C2)Nc2ccccc2N(C(=O)c2ccccc2Cl)C3c2ccc(F)cc2)cc1` (stereo not drawn), the GI50 in [2] is > 100 µM; in assay [3] it was > 100 µM; in [5], > 100 µM; in [6], 7.01 µM; in assay [7], > 100 µM; in assay [8], > 100 µM. In [10], the GI50 is 5.57 µM. Moreover, the TGI in assay [2], in [3], in [5], in [6], in [7] and in assay [8] was > 100 µM each time. In assay [10], the TGI is > 100 µM.

In the case of `CN(C)C=N[C@@H](C(=O)O)c1ccccc1`, the TGI in assay [1], in assay [3], in assay [4], in assay [5], in [6] and in assay [7] was > 100 µM each time. Besides, the TGI in [8], in assay [9] and in assay [10] was > 100 µM throughout.

For `COC(=O)c1onc(C2OC(C)(C)OC2C(O)COC(c2ccccc2)(c2ccccc2)c2ccccc2)c1C(=O)OC` (stereo not drawn), the TGI in assay [1], in assay [2], in [3], in [4], in assay [5] and in [6] was > 100 µM each time. Also, the TGI in assay [7], in assay [9] and in assay [10] was > 100 µM throughout.

On to `CC12CCC(=O)C(O1)C1C(=O)c3ccc4c(ccc5ccccc54)c3C(=O)C12` (stereo not drawn), for which the GI50 in [1] is 1.66 µM; in assay [2], 9.77 µM; in assay [3], 13 µM; in assay [4], 1.31 µM; in [5], 4.27 µM; in assay [6], 4.36 µM. Also, the results for the GI50 in assay [7], in assay [8] and in [10] were 5.42 µM, 20.5 µM and 2.26 µM, respectively. Moreover, the TGI is 7.21 µM in [1]; > 26.1 µM in [2]; 26.4 µM in [3]; 17.5 µM in [4]; 12.7 µM in assay [5]; 10.7 µM in assay [6]. Moreover, the results for the TGI in assay [7], in [8] and in [10] were 10.3 µM, 54 µM and > 28.5 µM, respectively.

With `CC1=C(CO)C(=O)O[C@@H]([C@@H](C)[C@H]2CC[C@H]3[C@@H]4C[C@H]5O[C@]56[C@@H](O)C=CC(=O)[C@]6(C)[C@H]4CC[C@]23C)C1`, the TGI is 0.821 µM in [1]; > 100 µM in [2]; 0.976 µM in assay [3]; 1.72 µM in [4]; 1.76 µM in [5]; 2.46 µM in assay [6]. Moreover, the TGI came out at 1.78 µM in assay [7], 3.25 µM in [8] and 2.5 µM in [10]. Further, the GI50 was 0.402 µM in assay [2]; 0.252 µM in assay [3]; 1.03 µM in assay [6]; 0.463 µM in [7]; 0.5 µM in assay [10].

For the compound `CC(=O)c1c[nH]c2ccc(-c3ccnc(Nc4ccc(NC(=O)C5CCCC5)c(CN5CCOCC5)c4)n3)cc12`, the GI50 is 0.0253 µM in assay [1]; 0.0207 µM in [2]; 0.0286 µM in [3]; 0.0287 µM in assay [4]; 0.0362 µM in [5]; 0.0325 µM in assay [6]. For the same compound, the GI50 is 0.0301 µM in [7] and 0.0379 µM in assay [10]. Besides, the TGI in assay [1] was 0.0727 µM; in [2], 0.105 µM; in assay [3] it was 0.121 µM; in assay [4] it was 0.474 µM; in [5], > 100 µM; in assay [6], 1.05 µM. Further, the TGI in assay [7] is 3.97 µM; in assay [8], 0.042 µM.
